According to US20150080462A1, “COMPOSITIONS AND METHODS FOR THE TREATMENT OR PREVENTION OF DISORDERS RELATING TO OXIDATIVE STRESS” (THE JOHNS HOPKINS UNIVERSITY, priority 2005, published 2015):
Entries after “also recorded” stand apart in the source; their conditions may differ. *1 amine or outer side, *2 acyl side, *3 side chain or, on linkers, in order; H or OH if unused. Where a SMILES comes first, the peptide text is derived from it. Bridges are numbered along the chain shown (N, C = ends). Roman numbers before positions name the chains, in order. [ ]: non-standard residue; d: D form. Actinocin(9to1) = Cc1c2oc3c(C)ccc(C(=O)[*:1])c3nc-2c(C(=O)[*:2])c(N)c1=O; NMeV = CN[C@H](C(=O)O)C(C)C; Sar = CNCC(=O)O

Legend:
HO-1 = HO-1 protein expression in cortical neurons (Western blot); details: cortical neurons pretreated 1 h with CHX or ATD, then 100 μg/ml EGb 761
[1] = test system: mouse cortical neuronal cells; experiment: Glutamate-induced cytotoxicity in primary neurons (MTT); type: cell-based; details: SnPPIX 5 μM; CHX 10 μM
Experimental: Mouse primary neurons cultured for 14 d were pre-treated for 6 h with EGb 761 (100 μg/ml). […] Neurons were incubated for an additional 18 h, and the MTT assay was used to estimate the cell survival. Experimental conditions were conducted in quadruplicate and repeated four times with different batches of primary cultures.
(§1) Neuronal survival was assessed and quantified with the MTT colorimetric assay. […] The optical density was determined at 570 nm. Cell viability of the vehicle-treated control group was defined as 100%, and MTT optical density in the treated groups was expressed as a percent of control.

NF-κB = type: cell-based, mouse; details: nrf2−/− MEFs pretreated 1 h with NAC (10 mM) or GSH-MEE (1 mM), then LPS (0.5 μg/ml) or TNF-α (10 ng/ml) 3 h
Experimental: MEFs (60-80% confluence) were transfected with luciferase reporter genes (pNF-κB-luc or ISRE-Tk-Luc vector) by using Lipofectamine2000 (Invitrogen). The Renilla-luciferase reporter gene (pRL-TK) was co-transfected for normalization. After the treatments, the reporter gene activity was measured using the Dual Luciferase Assay System (Promega). All transfection experiments were carried out in triplicate wells and were repeated separately at least 3 times.

[2] = test system: OVA challenged Nrf2−/− mice; experiment: Lung histology (H&E) of OVA challenged mice pretreated with NAC; details: OVA challenged (1st challenge) Nrf2−/− mice, NAC 7 days before challenge
Experimental: Mice (male, 8 weeks old) were sensitized on day 0 by i.p. injection (100 μl/mouse) with 20 μg of ovalbumin complexed with aluminum potassium sulfate. On day 14, mice were sensitized a second time with 100 μg OVA. On days 24, 26 and 28, the mice were anesthetized by i.p. injection of 0.1 ml of a mixture of ketamine (10 mg/ml) and xylazine (1 mg/ml) diluted in sterile PBS and challenged with 200 μg of OVA (in 100 μl sterile PBS) by intratracheal instillation. The control groups received sterile PBS with aluminum potassium sulfate by i.p. route on day 0 and 14, and 0.1 ml of sterile PBS on day 24, 26 and 28. […]
The lungs were inflated with 0.6 ml of buffered formalin (10%), fixed for 24 h at 4° C., prior to histochemical processing. […] The number of PAS positive cells was counted on longitudinal lung sections of the proximal airways. The percent PAS positive cells was determined by counting the mucus positive cells and unstained epithelial cells in the proximal airways under the microscope with a grid at 100× magnification. […] The data are expressed as mean±SEM.
Nrf2^+/+ and Nrf2^−/− mice (6 mice in each group) were sensitized with OVA by following the procedure as already described. […] Twenty-four hours after challenge, BAL fluids and lung tissues were harvested and analyzed as above. […]

nrf2−/− and nrf2+/+ mice = experiment: LPS induced septic shock mortality, NAC pretreatment; type: in vivo; details: LPS 1.5 mg per mouse
[3] = test system: OVA challenged Nrf2−/− mice; experiment: BAL fluid inflammatory cell counts in OVA challenged mice pretreated with NAC
Experimental: Mice (n=8) were anesthetized with 0.3 ml of pentobarbital (65 mg/ml) and the trachea was cannulated. […] BAL fluid was collected with 1 ml followed by 2×1 ml of sterile PBS containing 5 mM EDTA, DTT (5 mM) and PMSF (5 mM). The BAL fluid was immediately centrifuged at 1500×g. The total cell count was measured, and cytospin preparation (Shandon Scientific Inc., Cheshire, UK) was performed. Cells were stained with Diff-Quick reagent, and a differential count of 300 cells was performed using standard morphological criteria (Saltini C et al. Am Rev Respir Dis 130:650-658.1984).
Mice (male, 8 weeks old) were sensitized on day 0 by i.p. injection (100 μl/mouse) with 20 μg of ovalbumin complexed with aluminum potassium sulfate. On day 14, mice were sensitized a second time with 100 μg OVA. On days 24, 26 and 28, the mice were anesthetized by i.p. injection of 0.1 ml of a mixture of ketamine (10 mg/ml) and xylazine (1 mg/ml) diluted in sterile PBS and challenged with 200 μg of OVA (in 100 μl sterile PBS) by intratracheal instillation. The control groups received sterile PBS with aluminum potassium sulfate by i.p. route on day 0 and 14, and 0.1 ml of sterile PBS on day 24, 26 and 28. Mice were euthanized at different time points after OVA challenge for BAL, RNA isolation, histopathology, and for AHR measurements.
Nrf2^+/+ and Nrf2^−/− mice (6 mice in each group) were sensitized with OVA by following the procedure as already described. […] Twenty-four hours after challenge, BAL fluids and lung tissues were harvested and analyzed as above. The experiment was repeated two times.

caspase-3 = experiment: Caspase-3/7 assay in cortical neurons; type: cell-based, mouse; details: for caspase-3 activity: cortical neurons, t-BuOOH 60 μM, NMDA 100 μM, glutamate 300 μM
Nrf2 = details: cortical neurons; t-BuOOH 60 μM, NMDA 100 μM, glutamate 300 μM; up to 360 minutes
primary cortical neurons [4] = experiment: Neuronal viability by MTT assay (t-BuOOH, NMDA, glutamate with or without t-BHQ); details: 24 hours
[5] = test system: mouse cortical neuronal cells; experiment: H2O2-induced cytotoxicity in primary neurons (MTT); type: cell-based; details: SnPPIX 5 μM
Experimental: After 10 d in culture, mouse primary neurons were pre-treated with EGb 761 (10, 50, or 100 μg/ml) for 6 h, and then treated for 18 h with H2O2 (20 μM) or vehicle (control) with or without 5 μM HO inhibitor (SnPPIX, Porphyrin Products, Inc., (Logan, Utah). Cell survival was evaluated by the 3-(4,5-dimethylthiazol-2-yl)-2,5-diphenyl tetrazolium bromide (MTT) colorimetric assay.
as §1

HO-2 = HO-2 protein expression in cortical neurons (Western blot); details: 8 h
[6] = test system: NADPH-cytochrome P450 reductase (CP450R); experiment: NADPH-cytochrome P450 reductase protein expression in cortical neurons (Western blot); details: 8 h
primary cortical neurons [7] = test system: primary cortical neurons

Cc1c2oc3c(C)ccc(C(=O)N[C@@H]4C(=O)N[C@H](C(C)C)C(=O)N5CCC[C@H]5C(=O)N(C)CC(=O)N(C)[C@@H](C(C)C)C(=O)O[C@@H]4C)c3nc-2c(C(=O)N[C@@H]2C(=O)N[C@H](C(C)C)C(=O)N3CCC[C@H]3C(=O)N(C)CC(=O)N(C)[C@@H](C(C)C)C(=O)O[C@@H]2C)c(N)c1=O [ATD, actinomycin D] (I: T[dV]P[Sar][NMeV] / II: T[dV]P[Sar][NMeV]; ester I:1-I:C, II:1-II:C; linker I:N-II:N via Actinocin(9to1))
HO-1 induction by EGb 761 in presence of inhibitor (HO-1): completely block

C[C@@H]1C[C@@H]([C@H](O)CC2CC(=O)NC(=O)C2)C(=O)[C@@H](C)C1 [CHX, cycloheximide]
protective effect of EGb 761 against glutamate in presence of inhibitor [1]: prevented the protective effect
HO-1 induction by EGb 761 in presence of inhibitor (HO-1): completely block

CCOC(=O)CNC(=O)[C@H](CS)NC(=O)CC[C@H](N)C(=O)O [GSH-monoethyl ester]
NF-κB mediated reporter activity elicited by LPS or TNF-α (NF-κB): significantly attenuated

CC(=O)N[C@@H](CS)C(=O)O [NAC, N-acetyl L-cysteine]
infiltration of inflammatory cells in the peribronchial and perivascular region [2]: marked reduction; also recorded: significant reduction
LPS induced mortality (% survival) vs vehicle-pretreated mice (nrf2−/− and nrf2+/+ mice; nrf2−/− and nrf2+/+ mice, NAC ip 500 mg/kg daily 4 days, 5 days): improved survival
mice surviving LPS induced septic shock (nrf2−/− and nrf2+/+ mice; nrf2−/− mice, NAC 500 mg/kg ip daily 4 days, saline-pretreated all died within 56 h): 40%
protection against LPS induced septic shock (nrf2−/− and nrf2+/+ mice; wild-type mice, NAC 500 mg/kg 4 days): modest protection
other cell types (macrophages, neutrophils, lymphocytes, epithelial cells) in BAL fluid ([3]; 24 h post 1st OVA challenge, NAC treatment): did not have any significant inhibitory effect
inflammatory cells in the BAL fluid ([3]; Nrf2−/− OVA mice, NAC pretreatment 7 days before 1st OVA challenge): significantly (*) reduced
total and differential cell counts in saline-challenged mice ([3]; saline-challenged mice treated with NAC vs untreated): did not differ

CN[C@H](CC(=O)O)C(=O)O [NMDA]
caspase-3 activity (caspase-3): induced an increase
Nrf2 in the cytosolic fraction (Nrf2): no effect
Nrf2 in the nuclear fraction (Nrf2): no effect
number of viable neurons vs untreated control (primary cortical neurons [4]; t-BuOOH 60 μM, NMDA 100 μM, glutamate 300 μM): significantly decreased

C=Cc1c2[n-]c(c1C)/C=c1\[n-]/c(c(C)c1C=C)=C\c1[n-]c(c(CCC(=O)O)c1C)C=c1[n-]/c(c(C)c1CCC(=O)O)=C\2.[Sn+4] [SnPPIX, Tin Protoporphyrin IX]
protective effect of EGb 761 against glutamate in presence of inhibitor [1]: prevented the protective effect
protective effect of EGb 761 against H2O2 in presence of HO inhibitor [5]: blocked the protective effect

CC(C)(C)[C@]1(O)CC2OC(=O)CC23C(=O)OC2OC(=O)[C@H](O)C231 (some centres unmarked) [bilobalide]
HO-2 expression level (HO-2): do not affect
NADPH-cytochrome P450 reductase (CP450R) protein expression [6]: do not affect

N[C@@H](CCC(=O)O)C(=O)O [glutamate]
caspase-3 activity (caspase-3): induced an increase
Nrf2 in the cytosolic fraction (Nrf2): no effect
Nrf2 in the nuclear fraction (Nrf2): no effect

CC(C)(C)c1cc(O)ccc1O [t-BHQ, tert-butylhydroquinone]
increase in caspase-3 activity evoked by t-BuOOH, NMDA and glutamate (caspase-3; t-BHQ 20 μM): prevent the increase
basal levels of caspase-3 activity (caspase-3; t-BHQ alone): no effect
neuronal viability, compound alone (primary cortical neurons [7]): no effect
decrease in viable neurons caused by t-BuOOH, NMDA or glutamate (primary cortical neurons [4]; t-BHQ 20 μM): abolished

CC(C)(C)OO [t-BuOOH, test-butyl hydroperoxide]
caspase-3 activity (caspase-3): induced an increase
Nrf2 in the cytosolic fraction (Nrf2): decreased to below the basal level after 30 minutes
Nrf2 in the nuclear fraction (Nrf2): elevated at 30 min
